Results taken from publication PMC12323867 (RSC Medicinal Chemistry, 2025).
Read-outs that look alike come from different tables or passages of the source.

What was measured:
[1] = target: T1, LSD1-HDAC1-CoREST complex (Homo sapiens, UniProt O60341); test: LSD1 HRP-coupled demethylase assay, SP2509/SP2577 analogues; format: biochemical; settings: LSD1 enzymatic activity, complex 50 nM, HRP assay; read-out: LSD1-HDAC1-CoREST IC50
T1 construct: full length native LSD1 (UniProt ID: O60341); made in house; host or cells: HEK 293F cells (co-transfection, pcDNA3 vectors)
Description: The analogues synthesised were then tested for their ability to inhibit LSD1 using purified LSD1-HDAC1-CoREST complex (Fig. 2B). We used an established fluorescent read out horseradish peroxidase (HRP) assay to monitor LSD1 enzymatic activity in the CoREST complex[8] (see ESI ^† for full details).
2. Supplementary Information: Biology
2.1. LSD-HDAC1-CoREST expression and purification
Lysis Buffer (Buffer A) Wash Buffer (Buffer B)
• 50 mM Tris/Cl pH 7.5 • 50 mM Tris/Cl pH 7.5
• 50 mM Potassium Acetate • 50 mM Potassium Acetate […]
Cleavage Buffer (Buffer C) Gel Filtration Buffer (Buffer D)
• 50 mM Tris/Cl pH 7.5 Filtered at vacuum.
• 50 mM Potassium Acetate • 50 mM Tris/Cl pH 7.5
• 5 % v/v Glycerol • 50 mM Potassium Acetate
• 0.5 mM tris(2- • 0.5 mM TCEP carboxyethyl)phosphine (TCEP)
The CoREST ternary complex was comprised of full length native LSD1 (UniProt ID: O60341), full length HDAC1 (UniProt ID: Q13547) and N-terminally truncated RCOR1 (86-485aa) (UniProt ID:
Q9UKL0). Protein constructs were cloned into pcDNA3 vector. The RCOR1 constructs contained an N-terminal (His)10(Flag)3 tag followed by a Tev protease cleavage site. The constructs for ternary complex were co-transfected into suspension-grow HEK 293F cells (Thermofisher Scientific) with polyethylenimine (PEI) (Sigma) and harvested after 48 hours. This section of the procedure was carried out as described previously in literature.11,12
Cell pellets from 1.2 L culture were defrosted, and buffer A (30 mL) was added. The solution was sonicated (Soniprep 150) in an beaker of ice using a 9 mm probe at 10 ampules; operated with 10 […]
2.2. SP2509/SP2577 analogues LSD1 HRP-coupled demethylase assay protocol The commercial reagents for the assay were HRP and Amplex® Ultrared, which are available to purchase from ThermoFisher (31490) and Invitrogen (10737474), respectively. HRP was made up to 8 mg/mL stock solution in 1xPBS buffer, divided into 10 µL aliquots, snap-frozen in liquid nitrogen and stored at -80 °C. Amplex® Ultrared was made up to 10 mM solution in DMSO, divided into 20 µL aliquots and wrapped in foil, away from light and stored at -20 °C. For each assay experiment, CoREST complex was diluted to 500 nM in assay buffer (20 mM HEPES pH 7.5 and 50 mM NaCl).
HRP was defrosted by diluting each aliquot in 90 µL 1xPBS solution, making a 0.8 mg/mL solution.
Amplex® Ultrared was made up to 200 µM in assay buffer. HRP and Amplex® Ultrared were pre-mixed before addition to the plate. H3K4Me2 substrate (4 mM in deionised water) was diluted to 300 µM in assay buffer. All stocks were stored on ice during assay preparation.
The assay was carried out using a ‘black well’ 96 well plate (Corning no. 3915) in a reaction volume of 100 μL. The final concentrations in the assay were as follows: 50 nM CoREST complex, 10 μM Amplex® UltraRed, 0.04 mg/mL HRP and 15 μM H3K4Me2 peptide substrate. The final DMSO concentration in each well was 1.1 %. Three wells of each experiments were designated ‘background controls’ and contained 85 μL assay buffer, premixed Amplex® UltraRed and HRP (10 µL) and H3K4Me peptide substrate (300 μM, 5 µL).
A stock solution of inhibitor (1 -5 mM in DMSO) was subjected to an inhibitor dilution series, in Eppendorf tubes, in 100 % DMSO. Each new inhibitor stock (4 μL) was diluted in assay buffer (1 in 75) within a new Eppendorf set with assay buffer (20 mM HEPES pH 7.5 and 50 m M NaCl), ensuring the percentage of DMSO was consistent throughout the series. To each well of interest, Inhibitor in assay buffer (75 μL) was added, and CoREST complex (500 nM, 10 µL) was added thereafter. The plate was placed on a rocker and pre -incubated for 30 mins. To each well, premixed Amplex® UltraRed and HRP (10 µL) was added before H3K4Me 2 peptide substrate in assay buffer solution (300 μM, 5 µL) was added to the wall of the plate. The plate was covered in foil and spun down for one minute before being placed in the plate reader. The final percentage concentration of DMSO in […]

LSD1 [2] = settings: cited from earlier work
LSD1 [3] = test system: LSD1; parameters: method as in PMID 38742921; settings: cited from earlier work
H3K4me2 levels in cells = test system: H3K4me2 levels in cells; parameters: method as in PMID 38742921; settings: cited from earlier work

In the case of `C/C(=N\NC(=O)c1cccc(S(=O)(=O)N2CCN(C)CC2)c1)c1cc(Cl)ccc1O` [SP2577], the IC50 [1] is given as 306 nM, the IC50 (LSD1 [2]; read-out: LSD1 IC50) is given as 1330 nM and the IC50 (LSD1 [2]; read-out: LSD1 mean IC50) is given as 127 nM. The “ability to increase H3K4me2 on peptides and nucleosomes” value (LSD1 [3]) was “no effect” and the “H3K4me2 levels in cells” value (H3K4me2 levels in cells) was “failed to increase H3K4me2 levels”.
